# Measured values from ChEMBL document CHEMBL5143732 (J Med Chem, 2022).
# Assays:
# Assay type in all cases: functional
# Cryptococcus neoformans = assay: Antifungal activity against Cryptococcus neoformans ATCC 32609 assessed as inhibition of fungal growth measured after 48 hrs by CLSI based agar dilution method
# Candida tropicalis = assay: Antifungal activity against Candida tropicalis assessed as inhibition of fungal growth measured after 48 hrs by CLSI based agar dilution method
# Pichia kudriavzevii [1] = assay: Antifungal activity against Candida krusei assessed as inhibition of fungal growth measured after 48 hrs by CLSI based agar dilution method
# Candida parapsilosis = assay: Antifungal activity against Candida parapsilosis assessed as inhibition of fungal growth measured after 48 hrs by CLSI based agar dilution method; conditions: Lodderomyces parapsilosis
# Candida albicans = assay: Antifungal activity against Candida albicans assessed as inhibition of fungal growth measured after 48 hrs by CLSI based agar dilution method
# Pichia kudriavzevii [2] = assay: Antifungal activity against Candida krusei ATCC 6258 assessed as inhibition of fungal growth measured after 48 hrs by CLSI based agar dilution method
smiles,measurement,setting,value
C[C@@H]1[C@H](O)[C@@H](C)/C=C/C=C/C=C/C=C/C=C/C=C/C=C/[C@H](O[C@@H]2O[C@H](C)[C@@H](O)[C@H](N)[C@@H]2O)C[C@@H]2O[C@](O)(C[C@@H](O)C[C@@H](O)[C@H](O)CC[C@@H](O)C[C@@H](O)CC(=O)O[C@H]1C)C[C@H](O)[C@H]2C(=O)NNC(=O)c1ccc(Cl)cc1,MIC,Cryptococcus neoformans,2 µg/mL
same,MIC,Candida tropicalis,8 µg/mL
same,MIC,Pichia kudriavzevii [1],8 µg/mL
same,MIC,Candida parapsilosis,16 µg/mL
same,MIC,Candida albicans,4 µg/mL
same,MIC,Pichia kudriavzevii [2],16 µg/mL
C[C@@H]1[C@H](O)[C@@H](C)/C=C/C=C/C=C/C=C/C=C/C=C/C=C/[C@H](O[C@@H]2O[C@H](C)[C@@H](O)[C@H](NC(=O)CN)[C@@H]2O)C[C@@H]2O[C@](O)(C[C@@H](O)C[C@@H](O)[C@H](O)CC[C@@H](O)C[C@@H](O)CC(=O)O[C@H]1C)C[C@H](O)[C@H]2C(=O)NCCO,MIC,Cryptococcus neoformans,2 µg/mL
same,MIC,Candida tropicalis,4 µg/mL
same,MIC,Pichia kudriavzevii [1],2 µg/mL
same,MIC,Candida parapsilosis,4 µg/mL
same,MIC,Candida albicans,1 µg/mL
same,MIC,Pichia kudriavzevii [2],4 µg/mL
C[C@@H]1[C@H](O)[C@@H](C)/C=C/C=C/C=C/C=C/C=C/C=C/C=C/[C@H](O[C@@H]2O[C@H](C)[C@@H](O)[C@H](NC(=O)CN)[C@@H]2O)C[C@@H]2O[C@](O)(C[C@@H](O)C[C@@H](O)[C@H](O)CC[C@@H](O)C[C@@H](O)CC(=O)O[C@H]1C)C[C@H](O)[C@H]2C(=O)NCCCN(C)C,MIC,Cryptococcus neoformans,2 µg/mL
same,MIC,Candida tropicalis,16 µg/mL
same,MIC,Pichia kudriavzevii [1],8 µg/mL
same,MIC,Candida parapsilosis,8 µg/mL
same,MIC,Candida albicans,1 µg/mL
same,MIC,Pichia kudriavzevii [2],32 µg/mL
CNCC(=O)N[C@@H]1[C@H](O)[C@H](O[C@H]2/C=C/C=C/C=C/C=C/C=C/C=C/C=C/[C@H](C)[C@@H](O)[C@@H](C)[C@H](C)OC(=O)C[C@H](O)C[C@H](O)CC[C@@H](O)[C@H](O)C[C@H](O)C[C@]3(O)C[C@H](O)[C@@H](C(=O)N4CCN(C(C)=O)CC4)[C@H](C2)O3)O[C@H](C)[C@H]1O,MIC,Cryptococcus neoformans,2 µg/mL
same,MIC,Candida tropicalis,4 µg/mL
same,MIC,Pichia kudriavzevii [1],4 µg/mL
same,MIC,Candida parapsilosis,4 µg/mL
same,MIC,Candida albicans,2 µg/mL
same,MIC,Pichia kudriavzevii [2],8 µg/mL
C[C@@H]1[C@H](O)[C@@H](C)/C=C/C=C/C=C/C=C/C=C/C=C/C=C/[C@H](O[C@@H]2O[C@H](C)[C@@H](O)[C@H](NC(=O)CN)[C@@H]2O)C[C@@H]2O[C@](O)(C[C@@H](O)C[C@@H](O)[C@H](O)CC[C@@H](O)C[C@@H](O)CC(=O)O[C@H]1C)C[C@H](O)[C@H]2C(=O)NCCN(C)C,MIC,Cryptococcus neoformans,0.5 µg/mL
same,MIC,Candida tropicalis,2 µg/mL
same,MIC,Pichia kudriavzevii [1],1 µg/mL
same,MIC,Candida parapsilosis,1 µg/mL
same,MIC,Candida albicans,1 µg/mL
same,MIC,Pichia kudriavzevii [2],16 µg/mL
CNCC(=O)N[C@@H]1[C@H](O)[C@H](O[C@H]2/C=C/C=C/C=C/C=C/C=C/C=C/C=C/[C@H](C)[C@@H](O)[C@@H](C)[C@H](C)OC(=O)C[C@H](O)C[C@H](O)CC[C@@H](O)[C@H](O)C[C@H](O)C[C@]3(O)C[C@H](O)[C@@H](C(=O)N4CCN(CCOC)CC4)[C@H](C2)O3)O[C@H](C)[C@H]1O,MIC,Cryptococcus neoformans,0.25 µg/mL
same,MIC,Candida tropicalis,0.5 µg/mL
same,MIC,Pichia kudriavzevii [1],2 µg/mL
same,MIC,Candida parapsilosis,4 µg/mL
same,MIC,Candida albicans,0.5 µg/mL
same,MIC,Pichia kudriavzevii [2],32 µg/mL
CNCC(=O)N[C@@H]1[C@H](O)[C@H](O[C@H]2/C=C/C=C/C=C/C=C/C=C/C=C/C=C/[C@H](C)[C@@H](O)[C@@H](C)[C@H](C)OC(=O)C[C@H](O)C[C@H](O)CC[C@@H](O)[C@H](O)C[C@H](O)C[C@]3(O)C[C@H](O)[C@@H](C(=O)NCCN(C)C)[C@H](C2)O3)O[C@H](C)[C@H]1O,MIC,Cryptococcus neoformans,0.5 µg/mL
same,MIC,Candida tropicalis,4 µg/mL
same,MIC,Pichia kudriavzevii [1],2 µg/mL
same,MIC,Candida parapsilosis,2 µg/mL
same,MIC,Candida albicans,2 µg/mL
same,MIC,Pichia kudriavzevii [2],16 µg/mL
CNCC(=O)N[C@@H]1[C@H](O)[C@H](O[C@H]2/C=C/C=C/C=C/C=C/C=C/C=C/C=C/[C@H](C)[C@@H](O)[C@@H](C)[C@H](C)OC(=O)C[C@H](O)C[C@H](O)CC[C@@H](O)[C@H](O)C[C@H](O)C[C@]3(O)C[C@H](O)[C@@H](C(=O)N4CCN(C(=O)COCCOC)CC4)[C@H](C2)O3)O[C@H](C)[C@H]1O,MIC,Cryptococcus neoformans,4 µg/mL
same,MIC,Candida tropicalis,16 µg/mL
same,MIC,Pichia kudriavzevii [1],8 µg/mL
same,MIC,Candida parapsilosis,4 µg/mL
same,MIC,Candida albicans,4 µg/mL
same,MIC,Pichia kudriavzevii [2],16 µg/mL
C[C@@H]1[C@H](O)[C@@H](C)/C=C/C=C/C=C/C=C/C=C/C=C/C=C/[C@H](O[C@@H]2O[C@H](C)[C@@H](O)[C@H](NC(=O)CCN)[C@@H]2O)C[C@@H]2O[C@](O)(C[C@@H](O)C[C@@H](O)[C@H](O)CC[C@@H](O)C[C@@H](O)CC(=O)O[C@H]1C)C[C@H](O)[C@H]2C(=O)NCCN(C)C,MIC,Cryptococcus neoformans,0.125 µg/mL
same,MIC,Candida tropicalis,0.5 µg/mL
same,MIC,Pichia kudriavzevii [1],0.5 µg/mL
same,MIC,Candida parapsilosis,2 µg/mL
same,MIC,Candida albicans,0.5 µg/mL
same,MIC,Pichia kudriavzevii [2],16 µg/mL
CNCC(=O)N[C@@H]1[C@H](O)[C@H](O[C@H]2/C=C/C=C/C=C/C=C/C=C/C=C/C=C/[C@H](C)[C@@H](O)[C@@H](C)[C@H](C)OC(=O)C[C@H](O)C[C@H](O)CC[C@@H](O)[C@H](O)C[C@H](O)C[C@]3(O)C[C@H](O)[C@@H](C(=O)NNC(=O)OC)[C@H](C2)O3)O[C@H](C)[C@H]1O,MIC,Cryptococcus neoformans,0.5 µg/mL
same,MIC,Candida tropicalis,1 µg/mL
same,MIC,Pichia kudriavzevii [1],0.125 µg/mL
same,MIC,Candida parapsilosis,4 µg/mL
same,MIC,Candida albicans,0.125 µg/mL
same,MIC,Pichia kudriavzevii [2],2 µg/mL
CNCC(=O)N[C@@H]1[C@H](O)[C@H](O[C@H]2/C=C/C=C/C=C/C=C/C=C/C=C/C=C/[C@H](C)[C@@H](O)[C@@H](C)[C@H](C)OC(=O)C[C@H](O)C[C@H](O)CC[C@@H](O)[C@H](O)C[C@H](O)C[C@]3(O)C[C@H](O)[C@@H](C(=O)N4CCN(CCN(C)C)CC4)[C@H](C2)O3)O[C@H](C)[C@H]1O,MIC,Cryptococcus neoformans,1 µg/mL
same,MIC,Candida tropicalis,1 µg/mL
same,MIC,Pichia kudriavzevii [1],2 µg/mL
same,MIC,Candida parapsilosis,1 µg/mL
same,MIC,Candida albicans,1 µg/mL
same,MIC,Pichia kudriavzevii [2],4 µg/mL
CNCC(=O)N[C@@H]1[C@H](O)[C@H](O[C@H]2/C=C/C=C/C=C/C=C/C=C/C=C/C=C/[C@H](C)[C@@H](O)[C@@H](C)[C@H](C)OC(=O)C[C@H](O)C[C@H](O)CC[C@@H](O)[C@H](O)C[C@H](O)C[C@]3(O)C[C@H](O)[C@@H](C(=O)NNC(C)=O)[C@H](C2)O3)O[C@H](C)[C@H]1O,MIC,Cryptococcus neoformans,0.125 µg/mL
same,MIC,Candida tropicalis,4 µg/mL
same,MIC,Pichia kudriavzevii [1],0.5 µg/mL
same,MIC,Candida parapsilosis,2 µg/mL
same,MIC,Candida albicans,0.125 µg/mL
same,MIC,Pichia kudriavzevii [2],4 µg/mL
CNCC(=O)N[C@@H]1[C@H](O)[C@H](O[C@H]2/C=C/C=C/C=C/C=C/C=C/C=C/C=C/[C@H](C)[C@@H](O)[C@@H](C)[C@H](C)OC(=O)C[C@H](O)C[C@H](O)CC[C@@H](O)[C@H](O)C[C@H](O)C[C@]3(O)C[C@H](O)[C@@H](C(=O)N4CCN(C(=O)c5ccncn5)CC4)[C@H](C2)O3)O[C@H](C)[C@H]1O,MIC,Cryptococcus neoformans,1 µg/mL
same,MIC,Candida tropicalis,4 µg/mL
same,MIC,Pichia kudriavzevii [1],1 µg/mL
same,MIC,Candida parapsilosis,16 µg/mL
same,MIC,Candida albicans,1 µg/mL
same,MIC,Pichia kudriavzevii [2],16 µg/mL
CNCCOCC(=O)N[C@@H]1[C@H](O)[C@H](O[C@H]2/C=C/C=C/C=C/C=C/C=C/C=C/C=C/[C@H](C)[C@@H](O)[C@@H](C)[C@H](C)OC(=O)C[C@H](O)C[C@H](O)CC[C@@H](O)[C@H](O)C[C@H](O)C[C@]3(O)C[C@H](O)[C@@H](C(=O)N4CCN(CCO)CC4)[C@H](C2)O3)O[C@H](C)[C@H]1O,MIC,Cryptococcus neoformans,1 µg/mL
same,MIC,Candida tropicalis,1 µg/mL
same,MIC,Pichia kudriavzevii [1],2 µg/mL
same,MIC,Candida parapsilosis,2 µg/mL
same,MIC,Candida albicans,1 µg/mL
same,MIC,Pichia kudriavzevii [2],16 µg/mL
C[C@@H]1[C@H](O)[C@@H](C)/C=C/C=C/C=C/C=C/C=C/C=C/C=C/[C@H](O[C@@H]2O[C@H](C)[C@@H](O)[C@H](NC(=O)CCN)[C@@H]2O)C[C@@H]2O[C@](O)(C[C@@H](O)C[C@@H](O)[C@H](O)CC[C@@H](O)C[C@@H](O)CC(=O)O[C@H]1C)C[C@H](O)[C@H]2C(=O)NCCN,MIC,Cryptococcus neoformans,0.25 µg/mL
same,MIC,Candida tropicalis,0.25 µg/mL
same,MIC,Pichia kudriavzevii [1],0.5 µg/mL
same,MIC,Candida parapsilosis,0.125 µg/mL
same,MIC,Candida albicans,0.125 µg/mL
same,MIC,Pichia kudriavzevii [2],1 µg/mL
CC(C)C(=O)NNC(=O)[C@H]1[C@@H]2C[C@@H](O[C@@H]3O[C@H](C)[C@@H](O)[C@H](N)[C@@H]3O)/C=C/C=C/C=C/C=C/C=C/C=C/C=C/[C@H](C)[C@@H](O)[C@@H](C)[C@H](C)OC(=O)C[C@H](O)C[C@H](O)CC[C@@H](O)[C@H](O)C[C@H](O)C[C@](O)(C[C@@H]1O)O2,MIC,Cryptococcus neoformans,0.06 µg/mL
same,MIC,Candida tropicalis,0.5 µg/mL
same,MIC,Pichia kudriavzevii [1],0.5 µg/mL
same,MIC,Candida parapsilosis,1 µg/mL
same,MIC,Candida albicans,0.03 µg/mL
same,MIC,Pichia kudriavzevii [2],1 µg/mL
CCC(=O)NNC(=O)[C@H]1[C@@H]2C[C@@H](O[C@@H]3O[C@H](C)[C@@H](O)[C@H](N)[C@@H]3O)/C=C/C=C/C=C/C=C/C=C/C=C/C=C/[C@H](C)[C@@H](O)[C@@H](C)[C@H](C)OC(=O)C[C@H](O)C[C@H](O)CC[C@@H](O)[C@H](O)C[C@H](O)C[C@](O)(C[C@@H]1O)O2,MIC,Cryptococcus neoformans,0.03 µg/mL
same,MIC,Candida tropicalis,0.5 µg/mL
same,MIC,Pichia kudriavzevii [1],0.5 µg/mL
same,MIC,Candida parapsilosis,1 µg/mL
same,MIC,Candida albicans,0.25 µg/mL
same,MIC,Pichia kudriavzevii [2],0.5 µg/mL
